Converted amounts (≈) assume the structure as drawn. “And” between values parts separate entries of the source, which are not always exact repeats. Identical values can stand only once. “Also recorded” adds a separate entry of the source. Like-named read-outs stand apart in the source and are kept apart here.
How the values were obtained:
[1] = system: MCF7 human breast cancer cells; test: MTT growth inhibition assay on MCF7 cells; format: cell-based
[2] = system: MDA-MB-453 human breast cancer cells; test: MTT growth inhibition assay and combination index on MDA-MB-453 cells
Protocol: MTT assay: the MTT (3-(4,5-dimethyl-2-thiazol)-2,5-diphenyl-2H tetrazolilum bromide) cell proliferation assay system (Roche Diagnostic, Mannheim, Germany) was used to determine the sensitivity of the various cell lines to agents. Cells were seeded at 1×10^4 cells/well in 96-well plates and allowed to attach for 24 h. The medium was replaced with fresh medium containing DMSO or compound. The cells were treated for 96 or 120 h, after which they were incubated with MTT reagents and the absorbance read at 650 and 575 nm.
The results of the MTT assay were analyzed for possible synergistic effects using the median effect principle.

[3] = system: HT29 human colon cancer cells; test: MTT growth inhibition assay on HT29 cells; format: cell-based
293T(null) cells = test: MTT growth inhibition assay on 293T(null) cells; format: cell-based; settings: Homo sapiens, HEK-293T, 96 h MTT, FIG. 10B
[4] = system: 293T(NF-κB) stably transformed cells; test: MTT growth inhibition assay on 293T(NF-κB) cells; format: cell-based; settings: Homo sapiens, HEK-293T, 96 h MTT, FIG. 10B
MCF7 cells = test: Calcium release, cells preloaded with Fura-2, MCF7; format: cell-based, human
Protocol: (§1) Methods: To reveal signaling pathways, human breast and colon cancer, as well as 293T(NK-kB), cells were treated with actein, alone or combined with specific inhibitors. Effects were measured using the MTT, luciferase, promoter and Western blot assays and histology. To assess effects on calcium release, cells were preloaded with the calcium sensitive dye Fura-2. To enhance bioavailability, actein was conjugated to nanoparticle liposomes.
(§2) To elucidate the primary targets of actein, the effect of actein on calcium release was assessed. Cells were preloaded with the calcium sensitive dye Fura-2, which binds to calcium ions inside the cell. […] The effect was dose dependent in that it was stronger at 10 μM than at 10 nM in MCF7 breast cancer cells (FIG. 7A, B). […] The increase in calcium level was more sustained at the higher dose of actein (10 μM)) versus 10 nM and it continued longer for MDA-MB-453 than for MCF7 breast cancer cells (FIG. 7C).

MDA-MB-453 cells = test: Calcium release, cells preloaded with Fura-2, MDA-MB-453; format: cell-based, human; settings: MDA-MB-453, FIG. 7C
Protocol: as §1, §2

HT29 cells = test: Calcium release, cells preloaded with Fura-2, HT29; format: cell-based, human
Protocol: as §1, §2

[5] = system: NFκB transcription factor; test: NF-kB luciferase assay in 293T cells; format: cell-based; settings: 293T(NF-κB) cells
Protocol: A luciferase reporter construct is integrated in 293T cells and is regulated by 6 copies of the NFκB response element. The assay to monitor the activity of NFκB transcription factor was performed as described in the manufacturer's instructions (Panomics, Freemont, Calif.).

IKKβ protein = test: Western blot analysis of IKKβ; format: cell-based; settings: 3 h, FIG. 10C
Protocol: Cells were treated for increasing times, in media containing serum, with approximately the IC50 and twice the IC50 concentration, measured at 48 h, of actein. Western blot analysis was performed as previously described (Einbond et al., 2004). The membrane was incubated with the primary antibody IKKβ (Santa Cruz Biotechnology; Santa Cruz, Calif.); β-actin was used as a loading control.

[6] = system: MDA-MB-453 breast cancer cells; test: Gene expression analysis in MDA-MB-453 cells; format: cell-based, human; settings: actein 20 μg/ml
Protocol: Gene expression analysis was performed as previously described in vitro (Einbond et al., 2007)
AffyLimma analysis: To identify individual alterations in gene expression induced by treatment, an unbiased informatics analysis was performed using the AffyLimmaGUI package in the open-source Bioconductor suite, as previously described [Einbond et al., 2007.]

rat liver [7] = test: Gene expression in rat liver after actein; format: in vivo; settings: gene expression analysis
Na+/K+-ATPase = settings: Einbond et al., 2008, cited from earlier work
rat liver [8] = settings: cited from earlier work
[9] = system: NF-kB promoter activity, p-Erk, p-Akt, cyclin D1; settings: later times (24 h), Einbond et al., 2008; cited from earlier work
[10] = system: breast cancer cell growth; settings: Einbond et al., 2008; cited from earlier work
[11] = Homo sapiens, MDA-MB-453, read-out: IC50, agent alone

Compound: CC(=O)O[C@@H]1C[C@@]23C[C@@]24CC[C@H](O[C@@H]2OC[C@@H](O)[C@H](O)[C@H]2O)C(C)(C)[C@@H]4CC[C@H]3[C@]2(C)C[C@@H]3O[C@]4(C[C@@H](C)[C@@H]3[C@@]12C)O[C@H](O)[C@@]1(C)O[C@@H]41 [actein]
- IC50 ([1]; MCF7, 96 h, read-out: IC50, concentration that caused 50% inhibition of cell growth): ~30 µM
- viability at 5 µg/mL ([1]; MCF7, actein 5 μg/ml alone or plus U0126 10 μM, read-out: percent viable cells): 79.2%
- IC50 ([1]; MCF7, actein alone or combined with MEK inhibitor U0126, FIG. 6B, read-out: IC50, growth inhibition): 20 µg/mL
- IC50 ([2]; Homo sapiens, MDA-MB-453, 96 h, read-out: IC50, concentration that caused 50% inhibition of cell growth): ~8 µg/mL and ~12 µM
- IC50 [2, 11]: 25 µg/mL
- IC50 ([2]; Homo sapiens, MDA-MB-453, read-out: IC50, growth inhibition): 23 µg/mL
- ability of actein to potentiate the effects of thapsigargin ([2]; MDA-MB-453, FIG. 8A, B): enhanced the effects of thapsigargin
- IC50 ([3]; Homo sapiens, HT-29, 96 h, read-out: IC50, concentration that caused 50% inhibition of cell growth): ~24 µg/mL and ~35 µM
- viability at 10 µg/mL ([3]; Homo sapiens, HT-29, HT29, actein 10 μg/ml alone or plus U0126 10 μM, read-out: percent viable cells): 79.1%
- IC50 ([3]; Homo sapiens, HT-29, HT29, actein alone or combined with MEK inhibitor U0126, FIG. 6C, read-out: IC50, growth inhibition): 30 µg/mL
- IC50 (293T(null) cells): 75 µg/mL (≈ 111 µM)
- IC50 [4]: 38 µg/mL (≈ 56.1 µM)
- calcium release (action potential, Fura-2) (MCF7 cells; MCF7, actein 10 nM and 10 μM, FIG. 7A, B): induced an increase in action potential indicating calcium release
- intracellular calcium (ion concentration) levels (MCF7 cells; MCF7, actein 100 nM or 100 μM, FIG. 4): significantly increases intracellular calcium
- time course of the calcium effect (MCF7 cells; MCF7 breast cancer cells): immediate and transient
- calcium release (action potential, Fura-2) (MDA-MB-453 cells): induced an increase in action potential indicating calcium release
- calcium release (action potential, Fura-2) (HT29 cells): induced an increase in action potential indicating calcium release
- effect on 293T cells stably transformed with the NF-κB plasmid (FIG. 10A NF-kB activity) [5]: did not increase cell proliferation
- level of IKKβ protein (IKKβ protein): decreased the level of IKKβ protein in a dose dependent manner
- expression of the inflammatory pathway, cytokine-cytokine interaction ([6]; 6 h, up EPOR, down CXCR4, TRAF5, IL17RB): significantly modulated
- expression of the MAPK signaling pathway ([6]; gene (up) HSPA1A): significantly altered
- expression of the inflammatory gene CXCR4 in rat liver tissue (rat liver [7]): reduced the expression
- activity of the purified Na-K ATPase (Na+/K+-ATPase; 2007): inhibits the activity of the purified Na+/K+-ATPase; also recorded: inhibited the activity of the purified Na-K ATPase
- combination with digitoxin on Na/K ATPase activity (Na+/K+-ATPase): synergized with digitoxin
- genes erythropoietin, CYP2C and ATP synthase in rat liver (rat liver [8]; actein 35.7 mg/kg for 6 h, rat liver (Einbond et al., 2009)): downregulated
- responses elicited in rat liver in vivo (rat liver [8]; rat liver): elicited stress and statin-associated responses
- level of NF-kB promoter activity, p-Erk, p-Akt and cyclin D1 protein [9]: reduced
- combination with digitoxin on breast cancer cell growth [10]: synergized with digitoxin

Compound: heparin [reference compound]
- effect of heparin on the growth inhibitory effects of actein ([3]; HT29 colon cancer cells): partially blocked
- effect of heparin on actein-induced calcium release (MDA-MB-453 cells): completely blocked

Compound: C/C=C(/C)C(=O)O[C@H]1C(C)=C2[C@H]([C@@H]1OC(=O)CCCCCCC)[C@@](C)(OC(C)=O)C[C@H](OC(=O)CCC)[C@@]1(O)[C@H]2OC(=O)[C@@]1(C)O [thapsigargin, reference compound]
- IC50 [2, 11]: 0.018 µg/mL
- viability at 0.01 µg/mL ([2]; Homo sapiens, MDA-MB-453, read-out: percent viable cells): 76.3%

Reference: patent US20130177627A1, “Growth inhibitory effects of nanoparticles containing triterpene glycosides or triterpenes” (priority 2011, published 2013)
